Data on one compound can be found in patent US10881702B2, “Celastrol and derivatives thereof for the treatment of tumours and precancerous diseases of the skin” (PIERRE FABRE MEDICAMENT, priority 2016, dated 2021).

Data set [1] relates to healthy skin (epidermal keratinocytes). The data set is classed as in vivo, mice (SKH-1). As to conditions: occlusive patch 30 h. The text has this: Apoptosis is a fundamental event in cell development (proliferation). The visualisation of apoptosis and the subsequent healing phenomenon reflects the efficacy of medicaments in the treatment of precancerous and cancerous cells. Picato® (0.015% ingenol mebutate) is a product on the market which is indicated for the treatment of actinic keratosis. Picato® is known to induce cell death by a necrotic effect that rapidly eliminates dead cells, followed by a healing phase. To evaluate the “apoptotic” power of celastrol on skin cells (epidermal keratinocytes), we compared the apoptotic effect induced by the topical application of celastrol compared to that of a product already on the market.
(§1) Non-inbred hairless SKH-1 strain mice are most commonly used in preclinical dermatological research. These non-pigmented and immunocompetent mice allow easy manipulation of the skin, application of topical agents, exposure to UV radiation and easy visualisation of the cutaneous response. Wound healing, acute biological photo responses and skin carcinogenesis are well characterised in this mouse strain. In addition, the tumours induced in these mice resemble, at both the molecular and the morphological level, UV-induced malignant skin tumours in humans. In this study on healthy skin, 6- to 8-week-old SKH-1 females (18 to 20 grams; Charles River Laboratories) are treated topically with the various compounds.
(§2) Picato® (0.015% ingenol mebutate), used in humans to treat actinic keratosis lesions, was administered topically to the animals (2 to 3 animals per group) for 24 hours under a 19-mm-diameter, i.e., 2.83 cm^2, occlusive patch (Hill Top Research, USA). The patch is loaded with 200 μL of Picato® cream, i.e. 30 μg of active ingredient. The treated skin area is delimited by tattooing on each mouse and the patch is held on the mouse using Tegaderm™ film and Omnifix® and Elastoplast™ adhesive tape. The occlusive dressing is removed after 24 hours, and the animals are followed clinically for 3 to 4 weeks.
Celastrol (Euromedex) is formulated in a vehicle consisting of 5% DMSO-70% glycerol-25% water. The pH is adjusted by adding soda to around 8-8.5 in order to completely solubilise the powder. The initial concentration is 10 mg/mL then serial dilutions in the vehicle yield concentrations of 5 and 2.5 mg/mL. Celastrol is applied topically for 30 hours under a 19-mm-diameter occlusive patch. The patches are loaded with 200 μL of the various celastrol solutions, i.e. 2000 μg, 1000 μg or 500 μg of active ingredient.
The treated skin area is delimited by tattooing on each mouse and the patch is held on the mouse using Tegaderm™ film and Omnifix® and Elastoplast™ adhesive tape. The occlusive bandage is removed after 30 hours and the animals are followed clinically for 3 to 4 weeks.
The animals are weighed twice per week. The treated area of each animal is photographed two to three times per week in order to follow the progression of the cutaneous reaction and healing.

Data set [2] is described as follows: Clinical monitoring: body weight of topically treated SKH-1 mice. The data set is classed as in vivo, mice (SKH-1).
Source text: as §1
as §2, with “weeks. […]” for “weeks.”

With `CC1=C(O)C(=O)C=C2C1=CC=C1[C@@]2(C)CC[C@@]2(C)[C@@H]3C[C@](C)(C(=O)O)CC[C@]3(C)CC[C@]12C` [celastrol], the “scar area on day 28” value in data set [1] (celastrol 1000 μg and 2000 μg doses) was “slight hypertrophy of the scar area”. Besides, the “cutaneous reaction first visible” value in data set [1] (celastrol 500, 1000, 2000 μg, 24 hours after discontinuation) came to 3 days. This compound yielded a healing process starts in data set [1] (celastrol 500-2000 μg, dose-dependent) of 7 days. The “depth of the pro-apoptotic action” value in data set [1] (celastrol 500-2000 μg, localised in the epidermis) is recorded as “superficial”. For the same compound, in data set [1] (celastrol topical, dose-dependent), the “dose from which apoptosis of epidermal cells is induced in vivo” value was not below 500 μg/application. For the same compound, in data set [1] (celastrol, even at the highest dose (2000 μg)), the haemorrhagic zones entry is “no haemorrhagic zones are observed”. Also, the “systemic toxicity / tolerance” value in data set [2] (topical route at the doses used, SKH-1 mice) is given as “no systemic toxicity”. Besides, the “effect on the weight of SKH-1 mice” value in data set [2] (topical, occlusive patch, Picato 200 μL (30 μg) 24 h, celastrol 500-2000 μg 30 h, weighed twice per week) is listed as “no effect on the weight”.
